Data set [1] has as its system HeLa. Briefly: Cellular uptake in human HeLa cells assessed as retention time at 2 uM after 48 hrs by HPLC-MS analysis. In kind it is ADME, cell-based.
The subject of data set [2] is MCF7. Briefly: Cytotoxicity against human MCF7 cells assessed as reduction of cell proliferation at 1 nM to 1 uM after 96 hrs by MTT assay. The class given is functional, cell-based. (Tetrazolium assays rely on reduction of a dye to a coloured formazan, in cell work by metabolically active cells.)
Data set [3] concerns MCF7. Briefly: Cytotoxicity against human MCF7 cells assessed as reduction of cell proliferation at 6 uM after 96 hrs by MTT assay. The class given is functional, cell-based.
The test system of data set [4] is Cancer cell lines. Briefly: Cytotoxicity against human cervical cancer cells assessed as reduction of [3H]thymidine incorporation at 2 uM after 24 to 48 hrs by scintillation counting. In kind it is functional, cell-based. A general note: Uptake of a labelled nucleoside into DNA is a usual measure of proliferation.
Data set [5] relates to Cancer cell lines. Description: Cytotoxicity against human cervical cancer cells assessed as reduction of [3H]thymidine incorporation at 5 nM after 24 to 48 hrs by scintillation counting. The class given is functional, cell-based.
For data set [6], the target named is T1, Estrogen receptor (Homo sapiens, UniProt P03372).
T1 sequence (P03372 whole entry): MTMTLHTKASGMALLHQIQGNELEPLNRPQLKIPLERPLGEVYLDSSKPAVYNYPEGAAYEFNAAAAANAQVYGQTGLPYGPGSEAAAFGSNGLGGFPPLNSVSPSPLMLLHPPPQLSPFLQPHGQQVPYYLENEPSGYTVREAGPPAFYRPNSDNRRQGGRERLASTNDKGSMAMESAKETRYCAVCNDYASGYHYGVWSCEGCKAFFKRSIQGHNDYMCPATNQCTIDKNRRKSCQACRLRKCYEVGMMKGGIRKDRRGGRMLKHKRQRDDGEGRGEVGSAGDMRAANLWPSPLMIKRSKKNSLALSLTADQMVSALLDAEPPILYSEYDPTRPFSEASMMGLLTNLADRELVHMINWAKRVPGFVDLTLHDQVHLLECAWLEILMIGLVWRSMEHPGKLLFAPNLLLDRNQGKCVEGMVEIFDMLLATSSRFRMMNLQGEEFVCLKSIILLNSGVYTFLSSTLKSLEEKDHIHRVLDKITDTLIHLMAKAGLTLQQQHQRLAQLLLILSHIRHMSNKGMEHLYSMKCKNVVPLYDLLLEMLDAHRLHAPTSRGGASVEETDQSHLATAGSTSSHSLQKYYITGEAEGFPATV
Description: biochemical.
Description: Displacement of [2,4,6,7-3H]estradiol from human ERalpha expressed in HeLa cells after 18 hrs by liquid scintillation counting

Data set [7] deals with T2, Estrogen receptor (Homo sapiens) (UniProt P03372).
T2 sequence (whole entry): T1 sequence (P03372 whole entry)
Description: Agonist activity at human ERalpha expressed in human HeLa cells coexpressing ERE-E1b-Luc assessed as transcriptional activation after 48 hrs by luciferase reporter gene assay relative to estradiol. In kind it is functional, cell-based. For orientation: Reporter assays use an easily measured gene product as a stand-in for the process of interest.

Active and inactive are the calls of the source. No cut-off for these calls is given here.

One may read the Ki as the dissociation constant of the complex between target and ligand, obtained from inhibition or displacement. Read a low Ki as tighter binding.

As to `CCCC[N+](C)(C)CCOc1ccc(/C(=C(/CC)c2ccccc2)c2ccccc2)cc1.[Br-]` [TAMOXIFEN BUTYL BROMIDE], in data set [1], the Time was 10 min. For the same molecule, the result in data set [2] and in data set [4] was inactive. Also, the result in data set [3] and in data set [5] was Active. Besides, in data set [6], the affinity corresponds to a Ki of 0.013 µM.

As for `CC/C(=C(\c1ccccc1)c1ccc(OCC[N+](C)(C)CC)cc1)c1ccccc1.[Br-]` [TAMOXIFEN ETHYL BROMIDE], the Time in data set [1] is 8 min. Moreover, the outcome in data set [2] was inactive. Further, the result in data set [3] was Active. Moreover, in data set [6], the Ki amounted to 0.0137 µM.

`CC/C(=C(\c1ccccc1)c1ccc(OCC[N+](C)(C)C(C)C)cc1)c1ccccc1.[Br-]` [TAMOXIFEN ISOPROPYL BROMIDE]: the Time in data set [1] was 10 min. The Activity in data set [7] was found to be 50%. Also, the result in data set [2] and in data set [4] was inactive. The outcome in data set [3] and in data set [5] was Active. Affinity in data set [6] was put at a Ki of 0.0254 µM.

Turning to `CC/C(=C(\c1ccccc1)c1ccc(OCC[N+](C)(C)C)cc1)c1ccccc1.[I-]` [TAMOXIFEN METHYL IODIDE], in data set [1], the Time stood at 5 min. In data set [2], the result was inactive. For the same molecule, in data set [3], the result was Active. Besides, the inhibition constant Ki in data set [6] came out at 0.0463 µM.

For `CCC[N+](C)(C)CCOc1ccc(/C(=C(/CC)c2ccccc2)c2ccccc2)cc1.[Br-]` [TAMOXIFEN PROPYL BROMIDE], the Time in data set [1] came out at 9 min. In addition, the outcome in data set [2] was inactive. In data set [3], the result was Active.

As to `CC/C(=C(\c1ccccc1)c1ccc(OCCN(C)C)cc1)c1ccccc1` [TAMOXIFEN], the Time in data set [1] amounted to 9 min. In addition, the outcome in data set [2] was inactive. Besides, the outcome in data set [3] was Active.
